Results taken from US9290451B2 (Hoffmann-La Roche Inc., priority 2011, dated 2016).
Read-outs that look alike come from different tables or passages of the source.

What was measured:
human CB2 receptors = human CB2 receptors (Homo sapiens (Human), UniProt P34972); assay: cAMP assay, CHO cells expressing human CB2 receptors; format: cell-based
Description: (§1) CHO cells expressing human CB1 or CB2 receptors are seeded 17-24 hours prior to the experiment 50.000 cells per well in a black 96 well plate with flat clear bottom (Corning Costar #3904) in DMEM (Invitrogen No. 31331), 1×HT supplement, with 10% fetal calf serum and incubated at 5% CO2 and 37° C. in a humidified incubator. The growth medium was exchanged with Krebs Ringer Bicarbonate buffer with 1 mM IBMX and incubated at 30° C. for 30 min Compounds were added to a final assay volume of 100 μl and incubated for 30 min at 30° C. Using the cAMP-Nano-TRF detection kit the assay (Roche Diagnostics) was stopped by the addition of 50 μl lysis reagent (Tris, NaCl, 1.5% Triton X100, 2.5% NP40, 10% NaN3) and 50 μl detection solutions (20 μM mAb Alexa700-cAMP 1:1, and 48 μM Ruthenium-2-AHA-cAMP) and shaken for 2 h at room temperature. The time-resolved energy transfer is measured by a TRF reader (Evotec Technologies GmbH), equipped with a ND:YAG laser as excitation source. The plate is measured twice with the excitation at 355 nm and at the emission with a delay of 100 ns and a gate of 100 ns, total exposure time 10 s at 730 (bandwidth 30 nm) or 645 nm (bandwidth 75 nm), respectively. The FRET signal is calculated as follows: FRET=T730-Alexa730-P(T645-B645) with P═Ru730-B730/Ru645-B645, where T730 is the test well measured at […], T645 is the test well measured at 645 nm, B730 and B645 are the buffer controls at 730 nm and 645 nm, respectively. cAMP content is determined from the function of a standard curve spanning from 10 μM to 0.13 nM cAMP.
(§2) EC50 values were determined using Activity Base analysis (ID Business Solution, Limited). The EC50 values for a wide range of cannabinoid agonists generated from this assay for reference compounds were in agreement with the values published in the scientific literature.

human CB1 receptors = human CB1 receptors (Homo sapiens (Human), UniProt P21554); assay: cAMP assay, CHO cells expressing human CB1 receptors; format: cell-based; conditions: CHO cells expressing human CB1, cAMP; read-out: human CB1 EC50
Description: as §1, §2

[1] = CHO cells expressing human CB2, cAMP, read-out: human CB2 EC50

Sequence of human CB1 receptors (P21554 whole entry): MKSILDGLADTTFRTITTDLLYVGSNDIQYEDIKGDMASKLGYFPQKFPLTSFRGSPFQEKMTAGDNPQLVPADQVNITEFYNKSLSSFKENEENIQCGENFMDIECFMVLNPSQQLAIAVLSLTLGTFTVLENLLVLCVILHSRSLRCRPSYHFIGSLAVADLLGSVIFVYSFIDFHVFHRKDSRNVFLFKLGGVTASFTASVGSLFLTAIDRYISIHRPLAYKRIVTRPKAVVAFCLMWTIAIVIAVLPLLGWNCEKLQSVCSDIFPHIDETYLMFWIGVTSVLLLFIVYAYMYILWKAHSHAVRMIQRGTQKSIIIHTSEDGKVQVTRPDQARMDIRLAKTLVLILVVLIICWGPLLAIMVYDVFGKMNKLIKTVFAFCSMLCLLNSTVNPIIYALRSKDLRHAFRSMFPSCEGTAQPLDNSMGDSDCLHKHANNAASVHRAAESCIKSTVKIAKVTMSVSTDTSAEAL
Sequence of human CB2 receptors (P34972 whole entry): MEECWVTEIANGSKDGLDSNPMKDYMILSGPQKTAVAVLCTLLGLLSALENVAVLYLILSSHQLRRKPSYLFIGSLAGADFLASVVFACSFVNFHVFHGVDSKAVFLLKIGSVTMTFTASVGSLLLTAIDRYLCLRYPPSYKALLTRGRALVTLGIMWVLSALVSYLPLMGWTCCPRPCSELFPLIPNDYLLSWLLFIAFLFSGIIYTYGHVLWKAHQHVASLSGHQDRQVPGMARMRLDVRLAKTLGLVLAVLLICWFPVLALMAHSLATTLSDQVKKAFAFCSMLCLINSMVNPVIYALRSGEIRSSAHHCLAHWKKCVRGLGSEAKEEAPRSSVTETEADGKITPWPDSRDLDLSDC

Compound | EC50 (human CB2 receptors; [1]) [nM] | EC50 (human CB1 receptors) [nM] | EC50 (human CB2 receptors) [nM]
COC(=O)C(C)(C)NC(=O)c1ccc(C)c(Nc2ccc(Cl)cc2Cl)n1 [Example 6, Methyl 2-(6-(2,4-dichlorophenylamino)-5-methylpicolinamido)-2-methylpropanoate] | 376 | – | –
CC1(C)CCc2ccc(C(=O)NC(C)(C)CO)nc2C1 [Example 145, N-(1-hydroxy-2-methylpropan-2-yl)-7,7-dimethyl-5,6,7,8-tetrahydroquinoline-2-carboxamide] | 289 | > 10000 | –
Cc1nc([C@H](CC2CC2)NC(=O)c2ccc(C3CCCC3)c(OCC3CC3)n2)no1 [Example 53, 5-Cyclopentyl-6-cyclopropylmethoxy-pyridine-2-carboxylic acid [(S)-2-cyclopropyl-1-(5-methyl-[1,2,4]oxadiazol-3-yl)-ethyl]-amide] | 45.7 | > 10000 | –
CC(C)(C)NC(=O)c1ccc(C2CC2)c(OCC2CCCO2)n1 (centres unmarked) [Example 369, 5-Cyclopropyl-6-(tetrahydro-furan-2-ylmethoxy)-pyridine-2-carboxylic acid tert-butylamide] | 12 | > 10000 | –
Cc1ccc(C(=O)N2CCCCC2)nc1S(=O)(=O)N1CCCCC1 [Example 25, [5-Methyl-6-(piperidine-1-sulfonyl)-pyridin-2-yl]-piperidin-1-yl-methanone] | 291 | > 10000 | –
Cc1nc(C(NC(=O)c2cccc(-c3ccc(F)c(Cl)c3)n2)C2CC2)no1 (racemic) [Example 232, 6-(3-Chloro-4-fluoro-phenyl)-pyridine-2-carboxylic acid [cyclopropyl-(5-methyl-[1,2,4]oxadiazol-3-yl)-methyl]-amide] | 15 | 1630 | –
Cn1c(C(C)(C)NC(=O)c2ccc(C3CC3)c(OCC3CC3)n2)noc1=O [Example 338, 5-Cyclopropyl-6-cyclopropylmethoxy-pyridine-2-carboxylic acid [1-methyl-1-(4-methyl-5-oxo-4,5-dihydro-[1,2,4]oxadiazol-3-yl)-ethyl]-amide] | 534 | > 10000 | –
O=C(NCc1ccccn1)c1ccc(N2CC(F)(F)C2)c(OCC2CC2)n1 [Example 147, 6-Cyclopropylmethoxy-5-(3,3-difluoro-azetidin-1-yl)-pyridine-2-carboxylic acid (pyridin-2-ylmethyl)-amide] | 922 | > 10000 | –
CC(C)C[C@H](NC(=O)c1ccc(C2CC2)c(Oc2ccc(F)cc2)n1)C(N)=O [Example 187, 5-Cyclopropyl-6-(4-fluoro-phenoxy)-pyridine-2-carboxylic acid ((S)-1-carbamoyl-3-methyl-butyl)-amide] | 52.2 | > 10000 | –
COC(=O)C(C)(C)NC(=O)c1ccc(C)c(OCC(F)(F)F)n1 [Example 4, Methyl 2-methyl-2-(5-methyl-6-(2,2,2-trifluoroethoxy)picolinamido)propanoate] | 77.2 | – | –
COC(=O)C(C)(C)NC(=O)c1cccc(C2CCCCC2)n1 [Example 7, 2-[(6-Cyclohexyl-pyridine-2-carbonyl)-amino]-2-methyl-propionic acid methyl ester] | 32.1 | – | –
COC(=O)C(C)(C)NC(=O)c1cccc(-c2cccc(Cl)c2)n1 [Example 1, Methyl 2-(6-(3-chlorophenyl)picolinamido)-2-methylpropanoate] | 68.5 | – | –
O=C(N[C@@H](CC1CC1)C(=O)NN1CCC(O)C1)c1ccc(C2CC2)c(OCC2CC2)n1 (single isomer, unassigned; (+)) [Example 379] | – | – | 26.4
COC(=O)C(C)(C)NC(=O)c1ccc(C2CC2)c(Nc2ccc(Cl)cc2Cl)n1 [Example 5, Methyl 2-(5-cyclopropyl-6-(2,4-dichlorophenylamino)picolinamido)-2-methylpropanoate] | 434 | – | –
COC(=O)C(C)(C)NC(=O)c1cccc(-c2ccccc2Cl)n1 [Example 2, Methyl 2-(6-(2-chlorophenyl)picolinamido)-2-methylpropanoate] | 57.7 | – | –
